The record followed here is ChEMBL document CHEMBL2424546, “Synthesis, transformation and biological evaluation of 2,3-secotriterpene acetylhydrazones and their derivatives” (Eur J Med Chem, 2013).

Data set [1] relates to Vesicular stomatitis Indiana virus. The data set can be described thus: Antiviral activity against vesicular stomatitis virus Indiana infected in pig PEK cells assessed as inhibition of virus replication after 48 hrs by MTT assay. The class given is functional, organism-based. On the technique in general: Tetrazolium dyes change colour on reduction, which living cells bring about.

Data set [2] has as its system RD. As to the kind of experiment: Induction of apoptosis in human RD cells assessed as damaged cells at 10.9 uM after 6 hrs by annexinV-FITC/propidium iodide staining-based flow cytometry (reference value: 0.84%). In kind it is cell-based.
Data set [3] deals with RD. As to the kind of experiment: Induction of apoptosis in human RD cells assessed as late apoptotic/necrotic cells at 10.9 uM after 6 hrs by annexinV-FITC/propidium iodide staining-based flow cytometry (reference value: 1.20%). The class given is cell-based. In general terms: A flow cytometer gives signals particle by particle.
Data set [4] concerns RD. As to the kind of experiment: Induction of apoptosis in human RD cells assessed as early apoptotic cells at 10.9 uM after 6 hrs by annexinV-FITC/propidium iodide staining-based flow cytometry (reference value: 1.21%). In kind it is cell-based.
The nature of data set [5]: Induction of apoptosis in human RD cells assessed as viable cells at 10.9 uM after 6 hrs by annexinV-FITC/propidium iodide staining-based flow cytometry (reference value: 96.85%). In kind it is cell-based. The settings on record: read-out: Activity.
Data set [6] concerns RD. As to the kind of experiment: Induction of apoptosis in human RD cells at 10.9 uM after 6 hrs by annexinV-FITC/propidium iodide staining-based flow cytometry relative to control. The class given is cell-based.
Data set [7] can be described thus: Cytotoxicity against human MS cells after 72 hrs ny MTT assay. In kind it is cell-based.
Data set [8] has as its system A549. As to the kind of experiment: Cytotoxicity against human A549 cells after 72 hrs ny MTT assay. In kind it is cell-based. The conditions noted are these: A549, 72 h.
The nature of data set [9]: Cytotoxicity against human TE-32 cells after 72 hrs ny MTT assay. The class given is cell-based. The conditions noted are these: RD.
Data set [10] in a line: Therapeutic index, ratio of IC50 for pig PEK cells to EC50 for vesicular stomatitis virus Indiana infected in pig PEK cells. In kind it is cell-based. The conditions noted are these: read-out: Ratio IC50/EC50.
The nature of data set [11]: Cytotoxicity against pig PEK cells after 48 hrs by MTT assay. The class given is cell-based, Sus scrofa.
Data set [12] concerns RD. The data set can be described thus: Induction of apoptosis in human RD cells assessed as damaged cells at 4.5 uM after 6 hrs by annexinV-FITC/propidium iodide staining-based flow cytometry (reference value: 0.84%). In kind it is cell-based.
Data set [13] concerns RD. As to the kind of experiment: Induction of apoptosis in human RD cells assessed as late apoptotic/necrotic cells at 4.5 uM after 6 hrs by annexinV-FITC/propidium iodide staining-based flow cytometry (reference value: 1.20%). In kind it is cell-based.
Data set [14] relates to RD. The data set can be described thus: Induction of apoptosis in human RD cells assessed as early apoptotic cells at 4.5 uM after 6 hrs by annexinV-FITC/propidium iodide staining-based flow cytometry (reference value: 1.21%). In kind it is cell-based.
A short description of data set [15]: Induction of apoptosis in human RD cells assessed as viable cells at 4.5 uM after 6 hrs by annexinV-FITC/propidium iodide staining-based flow cytometry (reference value: 96.85%). In kind it is cell-based. The settings on record: read-out: Activity.
Where [16] appears, read: Vesicular stomatitis Indiana virus, PEK, 48 h, read-out: EC50.

Bounds are passed on as bounds.

For `C=C(C)[C@@H]1CC[C@]2(C(=O)NC(C)C)CC[C@]3(C)[C@H](CC[C@@H]4[C@@](C)(CC#N)[C@H](C(C)(C)/C=N/NC(C)=O)CC[C@]43C)[C@@H]12`, the EC50 – broadly, the concentration needed to bring the measured effect to its halfway point – in [1] (pek) is given as “Not Active”.
`C=C(C)[C@@H]1CC[C@]2(C(=O)OC)CC[C@]3(C)[C@H](CC[C@@H]4[C@@](C)(CC#N)[C@H](C(C)(C)[C@H]5OC(C)=NN5C(C)=O)CC[C@]43C)[C@@H]12`: the Activity in data set [2] was 1.51%; in [3], 2.21%; in data set [4], 3.83%; in data set [11] it was “Toxic”. For the same molecule, the viability at 6 h, 10.9 µM in data set [5] is 92.5%. In data set [6], the “fold change (FC)” value is given as 3. The IC50 – broadly, the point on the concentration scale where inhibition reaches its midpoint – in [7] came to 5.84 µM; in data set [8], 18.6 µM; in [9], 10.9 µM. Also, the selectivity ratio in data set [10] was 3. Moreover, the EC50 in data set [1] (setting [16]) stood at 0.62 µM.
With `C=C(C)[C@@H]1CC[C@]2(C(=O)OC)CC[C@]3(C)[C@H](CC[C@@H]4[C@@](C)(CC#N)[C@H](C(C)(C)[C@@H]5OC(C)=NN5C(C)=O)CC[C@]43C)[C@@H]12`, the IC50 in [7] was 110 µM; in data set [8], 133 µM; in data set [9] it was greater than 200 µM. For the same molecule, in data set [10], the selectivity ratio is 5. For the same molecule, the Activity entry in data set [11] is given as “Toxic”. Moreover, the EC50 in [1] (setting [16]) came out at 0.34 µM.
In the case of `CC(=O)N1N=C(C)O[C@@H]1C(C)(C)[C@@H]1CC[C@]2(C)[C@H](CC[C@@H]3[C@H]4[C@H]5OC[C@@]4(CCC5(C)C)CC[C@]32C)[C@@]1(C)CC#N`, the figures for the IC50 in [7], in [8] and in data set [9] were 11.5 µM, 147 µM and 82.2 µM, respectively. For the same molecule, in data set [1] (pek), the EC50 result is on record as “Not Active”.
With `CC(=O)N1N=C(C)O[C@H]1C(C)(C)[C@@H]1CC[C@]2(C)[C@H](CC[C@@H]3[C@H]4[C@H]5OC[C@@]4(CCC5(C)C)CC[C@]32C)[C@@]1(C)CC#N`, the values for the IC50 in data set [7], in data set [8] and in data set [9] were 40.3 µM, 95.5 µM and 85 µM, respectively. For the same molecule, the EC50 entry in [1] (pek) is recorded as “Not Active”.
`COC(=O)[C@@]1(C)CC[C@]2(C)CC[C@]3(C)C(=CC(=O)[C@@H]4[C@@](C)(CC#N)[C@H](C(C)(C)[C@H]5OC(C)=NN5C(C)=O)CC[C@]43C)[C@@H]2C1`: the results for the IC50 in data set [7], in data set [8] and in data set [9] were 88.7 µM, 133 µM and 166 µM, respectively.
With `COC(=O)[C@@]1(C)CC[C@]2(C)CC[C@]3(C)C(=CC(=O)[C@@H]4[C@@](C)(CC#N)[C@H](C(C)(C)[C@@H]5OC(C)=NN5C(C)=O)CC[C@]43C)[C@@H]2C1`, the values for the IC50 in data set [7], in data set [8] and in data set [9] were 71.2 µM, greater than 200 µM and greater than 200 µM, respectively.
In the case of `C=C(C)[C@@H]1CC[C@]2(C(=O)OC)CC[C@]3(C)[C@H](CC[C@@H]4[C@@](C)(CC#N)[C@H](C(C)(C)/C=N/N(C(C)=O)C(C)=O)CC[C@]43C)[C@@H]12`, in data set [10], the selectivity ratio was determined as 2. For the same molecule, the EC50 entry in data set [1] (pek) was “Not Active”.
`CC(=O)N(/N=C/C(C)(C)[C@@H]1CC[C@]2(C)[C@H](CC[C@@H]3[C@H]4[C@H]5OC[C@@]4(CCC5(C)C)CC[C@]32C)[C@@]1(C)CC#N)C(C)=O`: the selectivity ratio in data set [10] came out at 8. Moreover, the EC50 in data set [1] (setting [16]) was 15.9 µM.
For the molecule `C=C(C)[C@@H]1CC[C@]2(C(=O)OC)CC[C@]3(C)[C@H](CC[C@@H]4[C@@](C)(CC#N)[C@H](C(C)(C)/C=N/NC(C)=O)CC[C@]43C)[C@@H]12`, in data set [10], the selectivity ratio turned out to be 37. Moreover, the EC50 in data set [1] (setting [16]) was determined as 1.58 µM.
With `CC(=O)N/N=C/C(C)(C)[C@@H]1CC[C@]2(C)[C@H](CC[C@@H]3[C@H]4[C@H]5OC[C@@]4(CCC5(C)C)CC[C@]32C)[C@@]1(C)CC#N`, the selectivity ratio in data set [10] stood at 149. Also, the concentration giving a half-maximal response (EC50) in data set [1] (setting [16]) stood at 0.41 µM.
As to `COC(=O)[C@@]1(C)CC[C@]2(C)CC[C@]3(C)C(=CC(=O)[C@@H]4[C@@](C)(CC#N)[C@H](C(C)(C)/C=N/NC(C)=O)CC[C@]43C)[C@@H]2C1`, the selectivity ratio in [10] is 2. Further, the EC50 in data set [1] (setting [16]) was determined as 18.4 µM.
As to `C=C(C)[C@@H]1CC[C@]2(C(=O)NCCC(=O)OCC)CC[C@]3(C)[C@H](CC[C@@H]4[C@@](C)(CC#N)[C@H](C(C)(C)/C=N/NC(C)=O)CC[C@]43C)[C@@H]12`, in [1] (pek), the EC50 result is listed as “Not Active”.
Turning to `C=C(C)[C@@H]1CC[C@]2(C(=O)O)CC[C@]3(C)[C@H](CC[C@@H]4[C@@]5(C)CC[C@H](O)C(C)(C)[C@@H]5CC[C@]43C)[C@@H]12` [BETULINIC ACID], the IC50 in data set [7] was 16 µM; in data set [8] it was 44 µM; in [9], 23.9 µM. Moreover, the selectivity ratio in [10] came out at 0.07. Besides, in data set [1] (setting [16]), the EC50 was found to be 160 µM.
For the molecule `CC[C@@]1(O)C(=O)OCc2c1cc1n(c2=O)Cc2cc3ccccc3nc2-1` [CAMPTOTHECIN], the Activity in [12] came to 0.67%; in data set [13], 3.1%; in [14], 4.08%. For the same molecule, the viability at 6 h, 4.5 µM in data set [15] came to 92.2%. In addition, the IC50 stood at 0.23 µM in [7], 37.1 µM in data set [8] and 4.47 µM in data set [9].
